Test results reported in patent US20230123585A1, “COMPOSITIONS AND METHODS FOR TREATING OR PREVENTING CANCER USING DEUBIQUITINASE INHIBITORS” (The University of Chicago, priority 2020, published 2023).
Peptide text beside a SMILES is read from it. * marks the point of attachment. Cbz = O=C(OCc1ccccc1)*

Legend:
A375 cells = assay: Cell viability of control or METTL3 knockdown A375 cells after treatment with DNA damage repair modulators; type: cell-based, human; conditions: METTL3 knockdown versus control
Procedure: FIGS. 24A-24E: The synergistic damage effects of METTL3 knockdown with DNA damage repair modulators or inhibitors of specific DNA repair pathways in cancer cells. […] Error bars indicate mean±s.e.m. P values were determined by two-tailed t-test. (E) Analysis of dsDNA break in the control or METTL3 knockdown colon cancer cells. TUNEL assay was performed.

[1] = test system: METTL3 / m^6A methyltransferase complex in A375 cells; assay: Immunoblot of METTL3 / m^6A methyltransferase complex protein in A375 cell lysates; type: cell-based, human
Procedure: (§1) FIGS. 6A-6H: Phosphorylation of the m^6A Methyltransferase Complex May Affect Tumorigenesis. (A) Lysates of A375 stable transfectants harvested at different time points after treatment with cycloheximide (CHX) 10 μg/ml were analyzed by immunoblot. (B) LC-MS/MS quantification of the m^6A/A ratio in mRNA of A375 stable transfectants. (C) After 8 h treatment with 10 μM PD0325901 or 0.1 μM tramentib, cell lysates from A375 cells were analyzed by immunoblot. (D) LC-MS/MS quantification of the m^6A/A ratio in mRNA of A375 cells treated with 10 μM PD0325901 or 0.1 μM tramentib for 48 h. (E) After 8hr treatment with 10 μM EOAI3402143 (EOAI) or 30 μM vialinin A , cell lysates from A375 cells were analyzed by immunoblot. (F) A375 stable transfectants as indicated were treated with 3 μM EOAI3402143 (EOAI) or 10 μM vialinin A before measuring cell viability by SRB assay. Data are presented as relative to the R-WT cells without drug treatment (n=3 per group, data represent mean±SEM). (G) Immunofluorescence analysis of METTL3 (green) in SKBR3 cells treated with 1 μM tucatinib and 1 μM lapatinib for 8 hr. DAPI (blue) was used to mark the nucleus. (H) LC-MS/MS quantification of the m^6A/A ratio in mRNA of SKBR3 and BT474 cells treated with 1 μM tucatinib and 1 μM lapatinib for 48 h. (See also FIG. 14.)
(§2) FIGS. 11A-11G: USP5 is Required for ERK-Mediated METTL3 Stabilization. (A) A375 cells transfected with HA-ubiquitin (ub) were treated with 10 μM MG-132 and MEK inhibitor PD0325901 for 8 h. The ubiquitination of METTL3 was detected by IP with anti-METTL3 and immunoblot with anti-HA. (B) After 8 h treatment with 10 μM PD0325901 with or without 10 μM MG-132, cell lysates from A375 cells were analyzed by immunoblot. (C) A375 cells were treated with various concentrations of PD0325901 for 1 h. Cell lysates were subjected to IP with METTL3 antibody followed by immunoblot. (D) 293T cells transfected as indicated were subjected to IP/immunoblot analysis. (E) Immunofluorescence analysis of myc-METTL3 (green) in mESC stable transfectants. DAPI (blue) was used to mark the nucleus. (F) Lysates of 293T cells transfected as indicated were subjected to IP with anti-Flag antibody followed by immunoblot. (G) Immunofluorescence analysis of 293T cells co-transfected with myc-METTL3 (green), Flag-USP5 (red) with or without constitutively active B-RAF.
Immunoprecipitation, immunoblotting, and in vitro kinase assay. Immunoprecipitation (IP) and immunoblotting (IB) were performed as previously described (Sun et al., 2016). In brief, protein samples were isolated from respective cells by lysis in RIPA buffer (1% Triton X-100, 150 mM NaCl, 20 mM Na2PO4, pH 7.4) containing Halt Protease and Phosphatase Inhibitor Cocktail (Thermo Scientific). Subsequently, a BCA assay (Thermo Scientific) was used to determine the protein concentrations. For IP, indicated antibody and protein A/G magnetic beads (Thermo Scientific) were incubated with lysate at 4° C. overnight followed by washing and elution with sample buffer. Equal amounts of protein were separated by SDS-PAGE followed by wet transfer to PVDF membranes. Blots were blocked with 5% non-fat milk or BSA and incubated with respective primary antibody at 4° C. overnight. Primary antibodies were detected by HRP-linked secondary antibodies (Cell Signaling) together with SuperSignal West Pico Plus chemiluminescent substrate (Thermo Scientific) and imaged in a FluorChem R system (ProteinSimple).

p-METTL3 (S43) = p-METTL3 (S43) in A375 cells, IP with METTL3 antibody followed by immunoblot; type: cell-based, human; conditions: 1 h, 1 μM dabrafenib, 1 μM PLX-4720, 10 μM PD0325901, 0.1 μM trametinib
Source text: FIGS. 10A-10G: ERK Interacts and Phosphorylates METTL3 and WTAP. (A-C) Mass spectrometry detected S43, S50 and S525 phosphorylation in METTL3 in 293T cells co-transfected with B-RAF V600E. (D) Characterization of anti-p-METTL3 (S43) antibodies of 293T cells transfected as indicated with MEK S218D/S222D, HER2 V659E, B-RAF V600E and WT or non-phosphorylatable alanine mutant (3A) METTL3. (E) The METTL3 S43 phosphorylation was identified by in vitro kinase assays, in which purified METTL3-METTL14 were incubated with activated ERK2. (F) A375 cells were treated with 1 μM dabrafenib, 1 μM PLX-4720, 10 μM PD0325901, 0.1 μM tramentib for 1 h. Cell lysates were subjected to IP with METTL3 antibody followed by immunoblot. (G) Phos-tag SDS-PAGE showing the phosphorylation status of WT or non-phosphorylatable alanine mutants of mice WTAP in 293T cells co-transfected with B-RAF. 2A, T298A/S341A.
To investigate METTL3 phosphorylation by ERK inside cells, a polyclonal antibody was generated that targets S43-phosphorylated METTL3. This antibody recognizes S43-phosphorylated METTL3 but not a mutant form of METTL3, METTL3 3A, with all three phosphorylation serine sites replaced with alanine (FIG. 10D). This P-S43 antibody was then used as a tool to monitor METTL3 phosphorylation. […] Furthermore, the p-METTL3 (S43) in A375 cells, a human melanoma cell line with constitutively active ERK due to a B-RAF V600E mutation, was abrogated by treatments with B-RAF inhibitors (dabrafenib and PLX4720) or MEK inhibitors (PD0325901 and trametinib) (FIG. 10F), supporting that S43 phosphorylation on METTL3 is installed through the ERK pathway.
Immunoprecipitation, immunoblotting, and in vitro kinase assay. Immunoprecipitation (IP) and immunoblotting (IB) were performed as previously described (Sun et al., 2016). […] Primary antibodies were detected by HRP-linked secondary antibodies (Cell Signaling) together with SuperSignal West Pico Plus chemiluminescent substrate (Thermo Scientific) and imaged in a FluorChem R system (ProteinSimple).

METTL3 in SKBR3 cells = assay: Immunofluorescence analysis of METTL3 in SKBR3 cells; type: cell-based; conditions: 1 μM, 8 hr
Procedure: as §1, with “(See also FIG. 14.)” left out
Confocal Microscopy. […] Confocal fluorescence images were captured using Olympus FV1000 confocal spectral microscope.

[2] = test system: mRNA m^6A in SKBR3 and BT474 cells; assay: LC-MS/MS quantification of the m^6A/A ratio in mRNA of SKBR3 and BT474 cells; type: cell-based; conditions: 1 μM, 48 h
Procedure: as §1, with “(F) A375 stable transfectants as indicated were treated with 3 μM EOAI3402143 (EOAI) or 10 μM vialinin A before measuring cell viability by SRB assay. Data are presented as relative to the R-WT cells without drug treatment (n=3 per group, data represent mean±SEM). (G) Immunofluorescence analysis of METTL3 (green) in SKBR3 cells treated with 1 μM tucatinib and 1 μM lapatinib for 8 hr. DAPI (blue) was used to mark the nucleus.” left out, “(See also FIG. 14.)” left out
LC-MS/MS quantification of m^6A in poly(A) RNA. mRNA was extracted from the total RNA using 2 rounds of the Dynabeads mRNA purification kit. […] The nucleosides were quantified by using the nucleoside-to-base ion mass transitions of 282 to 150 (m^6A) and 268 to 136 (A). Quantification was carried out by comparison with a standard curve obtained from pure nucleoside. The ratio of m^6A to A was calculated based on the calibrated concentrations (Liu et al., 2018).

ubiquitination of METTL3 = assay: Ubiquitination of METTL3 in A375 cells transfected with HA-ubiquitin (IP anti-METTL3, immunoblot anti-HA); type: cell-based, human; conditions: 10 μM MG-132 and 10 μM EOAI3402143 or 30 μM vialinin A for 8 h
Procedure: as §2
FIGS. 14A-14I: Phosphorylation of the m^6A Methyltransferase Complex May Affect Tumorigenesis. […] (B) LC-MS/MS quantification of the m^6A/A ratio in mRNA of melanoma cell lines. (C) After 8 h treatment with 10 μM PD0325901 or 0.1 μM tramentib, cell lysates from HCT-116 cells were analyzed by immunoblot. […] The ubiquitination of METTL3 was detected by IP with anti-METTL3 and immunoblot with anti-HA. (F) After 8 hr treatment with 10 μM EOAI3402143 (EOAI) or 30 μM vialinin A, cell lysates from HCT-116 cells were analyzed by immunoblot. […] (I) LC-MS/MS quantification of the m^6A/A ratio in mRNA of breast cancer cell lines.
Immunoprecipitation, immunoblotting, and in vitro kinase assay. […] Primary antibodies were detected by HRP-linked secondary antibodies (Cell Signaling) together with SuperSignal West Pico Plus chemiluminescent substrate (Thermo Scientific) and imaged in a FluorChem R system (ProteinSimple).

Molecule: O=c1[nH]cc(F)c(=O)[nH]1 [5-FU]
- effect on cell viability of DNA damage agent with METTL3 knockdown (A375 cells): synergistic effects

Molecule: C[C@@H]1COCCN1c1cc(C2([S@](C)(=N)=O)CC2)nc(-c2cc[nH]c3nccc2-3)n1 [AZD6738, ceralasertib]
- cell death of METTL3 knockdown cells versus controls after DNA damage repair inhibitor (A375 cells): more severe cell death

Molecule: CC(C)C[C@@H](C=O)NC(=O)[C@H](CC(C)C)NC(=O)[C@H](CC(C)C)NC(=O)OCc1ccccc1 [MG132] (Cbz-Leu-Leu-Leu-aldehyde)
- PD0325901-induced degradation of METTL3 on addition of proteasome inhibitor ([1]; A375 cells, 10 μM PD0325901 with 10 μM MG-132, 8 h): restored

Molecule: CCCS(=O)(=O)Nc1ccc(F)c(C(=O)c2c[nH]c3ncc(Cl)cc23)c1F [PLX4720]
- p-METTL3 (S43) (p-METTL3 (S43)): abrogated

Molecule: CC(C)(C)c1nc(-c2cccc(NS(=O)(=O)c3c(F)cccc3F)c2F)c(-c2ccnc(N)n2)s1 [dabrafenib]
- p-METTL3 (S43) (p-METTL3 (S43)): abrogated

Molecule: CS(=O)(=O)CCNCc1ccc(-c2ccc3ncnc(Nc4ccc(OCc5cccc(F)c5)c(Cl)c4)c3c2)o1 [lapatinib]
- METTL3 protein level (METTL3 in SKBR3 cells): reduce
- cellular mRNA m^6A methylation (m^6A/A ratio) [2]: reduce

Molecule: Cc1cc(Nc2ncnc3ccc(NC4=NC(C)(C)CO4)cc23)ccc1Oc1ccn2ncnc2c1 [tucatinib]
- METTL3 protein level (METTL3 in SKBR3 cells): reduce
- cellular mRNA m^6A methylation (m^6A/A ratio) [2]: reduce

Molecule: C[C@]1(c2nc3c(C(N)=O)cccc3[nH]2)CCCN1 [veliparib]
- cell death of METTL3 knockdown cells versus controls after DNA damage repair inhibitor (A375 cells): more severe cell death

Molecule: O=C(Cc1ccccc1)Oc1c(OC(=O)Cc2ccccc2)c(-c2ccc(O)cc2)c(O)c(O)c1-c1ccc(O)cc1 [vialinin]
- ubiquitination of METTL3 (ubiquitination of METTL3): increased
- METTL3 protein level ([1]; A375 cells (also HCT-116, FIG. 14F), 8 hr, 10 μM EOAI3402143 or 30 μM vialinin A): decreased

Molecule: Bleomycin
- effect on cell viability of DNA damage agent with METTL3 knockdown (A375 cells): synergistic effects
